We go through 4 compounds from patent US20120289501A1, “Benzene-fused 6-membered oxygen-containing heterocyclic derivatives of bicyclic heteroaryls” (NOVARTIS AG, priority 2009, published 2012).

Chain of IGF1R (P08069 31-1367): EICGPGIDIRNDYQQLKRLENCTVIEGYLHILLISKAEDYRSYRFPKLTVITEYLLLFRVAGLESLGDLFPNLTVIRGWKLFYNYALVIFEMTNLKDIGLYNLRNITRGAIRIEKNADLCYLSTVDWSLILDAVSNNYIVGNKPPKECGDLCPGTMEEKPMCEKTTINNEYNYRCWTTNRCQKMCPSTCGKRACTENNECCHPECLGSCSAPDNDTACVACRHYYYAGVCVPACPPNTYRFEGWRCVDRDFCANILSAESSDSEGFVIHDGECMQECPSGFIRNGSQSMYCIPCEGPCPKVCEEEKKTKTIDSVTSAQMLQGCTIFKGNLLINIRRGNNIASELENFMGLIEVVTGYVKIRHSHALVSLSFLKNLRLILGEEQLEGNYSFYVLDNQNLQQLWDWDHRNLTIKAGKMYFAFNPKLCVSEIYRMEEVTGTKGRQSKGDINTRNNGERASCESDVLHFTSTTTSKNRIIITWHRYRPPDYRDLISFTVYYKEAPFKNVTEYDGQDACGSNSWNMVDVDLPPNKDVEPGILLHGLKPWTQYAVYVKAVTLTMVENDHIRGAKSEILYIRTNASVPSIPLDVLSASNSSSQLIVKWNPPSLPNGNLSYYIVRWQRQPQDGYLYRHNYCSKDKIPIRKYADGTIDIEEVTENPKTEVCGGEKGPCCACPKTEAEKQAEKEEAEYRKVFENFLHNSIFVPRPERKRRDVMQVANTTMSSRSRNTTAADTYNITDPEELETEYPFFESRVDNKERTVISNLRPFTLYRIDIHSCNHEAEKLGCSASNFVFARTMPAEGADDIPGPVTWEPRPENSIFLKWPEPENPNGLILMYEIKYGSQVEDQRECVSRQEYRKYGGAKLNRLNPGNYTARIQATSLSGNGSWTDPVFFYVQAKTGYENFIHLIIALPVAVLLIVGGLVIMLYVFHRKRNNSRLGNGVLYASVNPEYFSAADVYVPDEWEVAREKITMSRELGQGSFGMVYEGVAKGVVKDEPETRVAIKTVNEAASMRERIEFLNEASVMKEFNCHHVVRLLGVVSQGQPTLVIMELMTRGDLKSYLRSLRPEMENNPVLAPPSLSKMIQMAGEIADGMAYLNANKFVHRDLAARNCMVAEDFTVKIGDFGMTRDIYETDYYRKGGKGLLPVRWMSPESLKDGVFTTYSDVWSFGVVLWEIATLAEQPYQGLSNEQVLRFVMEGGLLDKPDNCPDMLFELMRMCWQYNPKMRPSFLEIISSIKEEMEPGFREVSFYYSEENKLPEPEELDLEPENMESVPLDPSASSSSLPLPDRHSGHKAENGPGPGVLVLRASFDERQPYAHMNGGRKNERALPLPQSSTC

This assay concerns the target IGF1R (Homo sapiens, UniProt P08069). The experiment in a line: Cellular IGF-1R assay: inhibition of IGF1R phosphorylation in transduced Hek293 cells, capture ELISA (MSD). Also noted: Hek293 cells transduced with the corresponding receptors; expressed in transfected cells; host or cells: Hek293 (Hek293-IGF1R). It is filed as cell-based. The essentials: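 Serum-starved Hek293 cells transduced with IGF1R or InsR were pre-incubated 1 h with 3-fold dilutions from 10 μM (0.1% DMSO), then stimulated 10 min with 1.0 ng/μL IGF or 5.0 ng/μL insulin. pTyr1135/1136 (pINSR Tyr1150/1151) was read by MSD capture ELISA, normalised to stimulated vs unstimulated window; IC50 from 4-parameter fit.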
With `CC(=O)NC[C@H]1C[C@@H](n2cc(-c3ccc4c(c3)OC(c3ccccc3)CC4)c3c(N)ncnc32)C1` (mixture of isomers) [Example 16, (R,S)—N-{cis-3-[4-Amino-5-(2-phenyl-chroman-7-yl)-pyrrolo[2,3-d]pyrimidin-7-yl]-cyclobutylmethyl}-acetamide], the IC50 amounted to 22 nM.

In the case of `Nc1ncnc2c1c(-c1ccc3c(c1)OC(c1ccccc1)C=C3)cn2[C@H]1C[C@@H](CN2CCS(=O)(=O)CC2)C1` (mixture of isomers) [Example 21, (R,S)-7-[cis-3-(1,1-Dioxo-1-thiomorpholin-4-ylmethyl)-cyclobutyl]-5-(2-phenyl-2H-chromen-7-yl)-7H-pyrrolo[2,3-d]pyrimidin-4-ylamine], half-maximal inhibition (IC50) required 9 nM.

`CC(=O)N1CCN([C@H]2C[C@@H](n3cc(-c4ccc5c(c4)OC(c4ccccc4)CC5)c4c(N)ncnc43)C2)CC1` (relative stereo) [Example 38, 1-(4-{cis-3-[4-Amino-5-(2-phenyl-chroman-7-yl)-pyrrolo[2,3-d]pyrimidin-7-yl]-cyclobutyl}-piperazin-1-yl)-ethanone]: the IC50 stood at 11 nM. The IC50 values of the last two compounds are within 1.5-fold of each other.

Turning to `Nc1ncnc2c1c(-c1ccc3c(c1)OC(c1ccccc1)CC3)cn2C1CC(O)(CO)C1` (single isomer, unassigned) [Example 26], the half-inhibitory concentration (IC50) lay within 27 to 106 nM.
